Assay results: patent US9511010B2, “Compounds useful in the treatment and/or care of the skin, hair and/or mucous membranes and their cosmetic or pharmaceutical compositions” (Lubrizol Advanced Materials, Inc., priority 2012, dated 2016)

Legend:
FOXO response elements = experiment: Stimulation of the expression of proteins regulated by FOXO: luciferase reporter under FOXO response elements; type: cell-based, human; conditions: 0.5 mg/mL, 24 hours; carrier (0.05% DMSO) = 100
Description: The activation capacity of the FOXO response elements was evaluated in a human epithelial cell line stably transfected with the luciferase gene under the control of a regulatory sequence which contains different FOXO response elements which are in the promoters of the FOXO target genes. The activation capacity of the FOXO response elements indicates the expression of proteins regulated by FOXO. 30,000 cells per well were seeded in a total volume of 100 μL of RPMI 1640 culture medium. After 24 hours the cells with RPMI 1640 culture medium were washed and were incubated with the compounds of the invention at 0.5 mg/mL for 24 hours in a total volume of 100 μL per well. The carrier in which the compounds of the invention were dissolved was used (0.05% DMSO) as a negative control.
The measurement of the activity of the promoter was carried out using the Steady-Go Luciferase Assay System kit following the manufacturer's instructions. The luminescence values (RLU/sec) caused by the reaction between luciferase and the substrate were quantified with a luminometer and normalized by the cell number (absorbance at 630 nm), and the activity of the promoter was determined, which was standardized with regard to the negative control values.
(§1) Each experiment was carried out three times in 3 independent experiments.

[1] = test system: HEKa primary keratinocytes; experiment: Host cell reactivation (HCR) assay, activation of DNA repair in primary keratinocytes; type: cell-based, human; conditions: 24 hours, basal = 100
Description: The host cell reactivation (HCR) assay was used in HEKa primary keratinocytes to evaluate the capacity of the peptides of the invention to repair the damage to the DNA in a biologically functional way. 40,000 cells per well were seeded and they were co-transfected with a control plasmid which constitutively expresses the Firefly luciferase gene (pGL3), previously damaged by UVC, and with an undamaged plasmid which constitutively expresses the Renilla luciferase gene (vector pRluc-N1(h)).
Subsequently the cells were incubated with the compounds of the invention at 0.025 mg/mL and 0.5 mg/mL in EpiLife medium for 24 hours, after which the luminescence due to the activity of the Firefly and Renilla luciferases was measured using the Dual-Go Luciferase Assay System kit following the manufacturer's instructions. The carrier in which the compounds of the invention (EpiLife medium) were dissolved was used as a negative control. The activation percentage of the DNA repair for each sample was calculated standardizing the luminescence values of the Firefly luciferase with regard to the Renilla luciferase, subsequently standardizing with regard to the values of the negative control.
as §1

## Ac-L-Tyr-L-Asn-L-Pro-L-His-L-Gln-L-Val-NH2 (Ac-YNPHQV-NH2) [Ac-SEQ ID NO: 18-NH2]
FOXO response elements
  Stimulation Average (%) of the activation of the FOXO response factors: 148%

## Ac-L-Tyr-L-Asn-L-Lys-Gly-L-Gln-L-Val-NH2 (Ac-YNKGQV-NH2) [Ac-SEQ ID NO: 1-NH2]
FOXO response elements
  Stimulation Average (%) of the activation of the FOXO response factors: 143%
[1]; 0.025 mg/mL
  Activation Average (%) of DNA repair, HCR assay: 150%
[1]; 0.5 mg/mL
  Activation Average (%) of DNA repair, HCR assay: 290%

## Ac-L-Tyr-L-His-L-Pro-L-His-L-Gln-L-Val-NH2 (Ac-YHPHQV-NH2) [Ac-SEQ ID NO: 28-NH2]
FOXO response elements
  Stimulation Average (%) of the activation of the FOXO response factors: 125%

## Ac-L-Tyr-L-Asn-L-Ser-L-Lys-L-Gln-L-Val-NH2 (Ac-YNSKQV-NH2) [Ac-SEQ ID NO: 27-NH2]
FOXO response elements
  Stimulation Average (%) of the activation of the FOXO response factors: 128%

## Ac-L-Tyr-L-Glu-L-Pro-L-His-L-Gln-L-Val-NH2 (Ac-YEPHQV-NH2) [Ac-SEQ ID NO: 40-NH2]
FOXO response elements
  Stimulation Average (%) of the activation of the FOXO response factors: 131%

## Ac-L-Tyr-L-Tyr-L-Ser-L-His-L-Gln-L-Val-NH2 (Ac-YYSHQV-NH2) [Ac-SEQ ID NO: 20-NH2]
FOXO response elements
  Stimulation Average (%) of the activation of the FOXO response factors: 157%

## Ac-L-Tyr-L-Tyr-L-Pro-L-His-L-Gln-L-Val-NH2 (Ac-YYPHQV-NH2) [Ac-SEQ ID NO: 29-NH2]
FOXO response elements
  Stimulation Average (%) of the activation of the FOXO response factors: 120%

## Ac-L-Tyr-L-His-L-Ser-L-Lys-L-Gln-L-Val-NH2 (Ac-YHSKQV-NH2) [Ac-SEQ ID NO: 26-NH2]
FOXO response elements
  Stimulation Average (%) of the activation of the FOXO response factors: 124%

## Ac-L-Tyr-L-Glu-L-Ser-L-Lys-L-Gln-L-Val-NH2 (Ac-YESKQV-NH2) [Ac-SEQ ID NO: 24-NH2]
FOXO response elements
  Stimulation Average (%) of the activation of the FOXO response factors: 133%
[1]; 0.025 mg/mL
  Activation Average (%) of DNA repair, HCR assay: 295%
[1]; 0.5 mg/mL
  Activation Average (%) of DNA repair, HCR assay: 271%

## Ac-L-Tyr-L-Glu-L-Ser-L-His-L-Gln-L-Val-NH2 (Ac-YESHQV-NH2) [Ac-SEQ ID NO: 19-NH2]
FOXO response elements
  Stimulation Average (%) of the activation of the FOXO response factors: 145%
[1]; 0.025 mg/mL
  Activation Average (%) of DNA repair, HCR assay: 191%
[1]; 0.5 mg/mL
  Activation Average (%) of DNA repair, HCR assay: 304%

## Ac-L-Tyr-L-Asn-L-Lys-L-Lys-L-Gln-L-Val-NH2 (Ac-YNKKQV-NH2) [Ac-SEQ ID NO: 8-NH2]
FOXO response elements
  Stimulation Average (%) of the activation of the FOXO response factors: 106%

## Ac-L-Tyr-L-Asn-L-Lys-L-Leu-L-Gln-L-Val-NH2 (Ac-YNKLQV-NH2) [Ac-SEQ ID NO: 21-NH2]
FOXO response elements
  Stimulation Average (%) of the activation of the FOXO response factors: 157%
[1]; 0.025 mg/mL
  Activation Average (%) of DNA repair, HCR assay: 231%
[1]; 0.5 mg/mL
  Activation Average (%) of DNA repair, HCR assay: 357%

## Ac-L-Tyr-L-Tyr-L-Pro-L-Lys-L-Gln-L-Val-NH2 (Ac-YYPKQV-NH2) [Ac-SEQ ID NO: 42-NH2]
FOXO response elements
  Stimulation Average (%) of the activation of the FOXO response factors: 133%

## Ac-L-Tyr-L-His-L-Ser-L-His-L-Gln-L-Val-NH2 (Ac-YHSHQV-NH2) [Ac-SEQ ID NO: 30-NH2]
FOXO response elements
  Stimulation Average (%) of the activation of the FOXO response factors: 138%

## Ac-L-Tyr-L-Asn-L-Ser-L-His-L-Gln-L-Val-NH2 (Ac-YNSHQV-NH2) [Ac-SEQ ID NO: 41-NH2]
FOXO response elements
  Stimulation Average (%) of the activation of the FOXO response factors: 129%

## Ac-L-Tyr-L-His-L-Lys-L-Leu-L-Gln-L-Val-NH2 (Ac-YHKLQV-NH2) [Ac-SEQ ID NO: 25-NH2]
FOXO response elements
  Stimulation Average (%) of the activation of the FOXO response factors: 168%

## Ac-L-Tyr-L-Tyr-L-Lys-L-Leu-L-Gln-L-Val-NH2 (Ac-YYKLQV-NH2) [Ac-SEQ ID NO: 23-NH2]
FOXO response elements
  Stimulation Average (%) of the activation of the FOXO response factors: 174%

## Ac-L-Tyr-L-Glu-L-Ser-Gly-L-Gln-L-Val-NH2 (Ac-YESGQV-NH2) [Ac-SEQ ID NO: 16-NH2]
FOXO response elements
  Stimulation Average (%) of the activation of the FOXO response factors: 119%
